Test results published in ChEMBL document CHEMBL3525952, “A Baeyer-Villiger oxidation specifically catalyzed by human flavin-containing monooxygenase 5” (Drug Metab Dispos, 2011).

Legend:
[1] = Retention time of the compound by HPLC analysis; format: physicochemical
Hepatocyte [2] = experiment: Drug level in human hepatocytes treated with 50 uM E7016 after 120 mins in presence of NADPH by LC-MS/MS method; format: ADME, cell-based; settings: 2 h
[3] = target: T1, Flavin-containing monooxygenase 5 (Homo sapiens, UniProt P49326); experiment: Drug metabolism assessed as human recombinant FMO5-mediated compound formation from 50 uM E7016 in presence of dog liver cytosolic fractions after 60 mins by LC-MS/MS method; format: ADME, tissue-based; settings: recombinant enzyme, 1 h
T1 sequence (P49326 whole entry): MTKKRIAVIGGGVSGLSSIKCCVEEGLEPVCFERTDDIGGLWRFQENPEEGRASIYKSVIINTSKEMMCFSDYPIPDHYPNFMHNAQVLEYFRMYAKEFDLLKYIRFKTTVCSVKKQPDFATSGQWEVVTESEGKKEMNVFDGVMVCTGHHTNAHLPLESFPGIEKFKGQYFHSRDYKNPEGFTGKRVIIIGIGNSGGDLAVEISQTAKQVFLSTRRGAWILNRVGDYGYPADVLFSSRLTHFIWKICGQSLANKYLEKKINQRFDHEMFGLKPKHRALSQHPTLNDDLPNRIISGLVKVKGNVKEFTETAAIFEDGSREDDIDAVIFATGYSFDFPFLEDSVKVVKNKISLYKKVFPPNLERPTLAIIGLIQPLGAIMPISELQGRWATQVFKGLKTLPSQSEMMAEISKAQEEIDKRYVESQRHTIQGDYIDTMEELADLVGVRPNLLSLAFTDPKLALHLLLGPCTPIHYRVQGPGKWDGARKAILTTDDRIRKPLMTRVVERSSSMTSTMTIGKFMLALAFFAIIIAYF

[4] = target: T1, Flavin-containing monooxygenase 5; experiment: Drug level assessed as human recombinant FMO5-mediated compound formation from 10 uM ER-879819 in presence NADPH after 60 mins by LC-MS/MS method; format: ADME; settings: recombinant enzyme, 1 h
[5] = target: T1, Flavin-containing monooxygenase 5; experiment: Drug metabolism assessed as human recombinant FMO5-mediated compound formation from 50 uM E7016 in presence of rat liver cytosolic fractions after 60 mins by LC-MS/MS method; format: ADME, tissue-based; settings: recombinant enzyme, 1 h
Liver microsome [6] = experiment: Drug level in human liver microsomes treated with 10 uM ER-879819 after 60 mins in presence of NADH by LC-MS/MS method; format: ADME; settings: 1 h
Liver microsome [7] = experiment: Drug level in dog liver microsomes treated with 10 uM ER-879819 after 60 mins in presence of NADH by LC-MS/MS method; format: ADME, Canis lupus familiaris; settings: 1 h
Hepatocyte [8] = experiment: Drug level in rat hepatocytes treated with 50 uM E7016 after 120 mins in presence of NADPH by LC-MS/MS method; format: ADME, cell-based; settings: 2 h
[9] = Drug level in dog liver S9 fraction treated with 50 uM E7016 after 60 mins in presence of NADP+ by LC-MS/MS method; format: ADME, subcellular, Canis lupus familiaris; settings: s9, 1 h
[10] = target: T1, Flavin-containing monooxygenase 5; experiment: Drug metabolism assessed as human recombinant FMO5-mediated compound formation from 50 uM E7016 in presence of human liver cytosolic fractions after 60 mins by LC-MS/MS method; format: ADME, tissue-based; settings: recombinant enzyme, 1 h
[11] = Drug level in human liver S9 fraction treated with 50 uM E7016 after 60 mins in presence of NAD+ by LC-MS/MS method; format: ADME, subcellular; settings: s9, 1 h
[12] = target: T1, Flavin-containing monooxygenase 5; experiment: Drug level assessed as human recombinant FMO5-mediated compound formation from 10 uM ER-879819 in presence NADH after 60 mins by LC-MS/MS method; format: ADME; settings: recombinant enzyme, 1 h
[13] = Drug level in dog hepatocytes treated with 50 uM E7016 after 120 mins in presence of NADPH by LC-MS/MS method; format: ADME, cell-based, Canis lupus familiaris, Hepatocyte; settings: 2 h
[14] = Drug level in human liver S9 fraction treated with 50 uM E7016 after 60 mins in presence of NADP+ by LC-MS/MS method; format: ADME, subcellular; settings: s9, 1 h
[15] = Drug level in dog liver S9 fraction treated with 50 uM E7016 after 60 mins in presence of NAD+ by LC-MS/MS method; format: ADME, subcellular, Canis lupus familiaris; settings: s9, 1 h

Row | SMILES | Retention_time [1] | Drug metabolism (Hepatocyte [2]) | Drug metabolism [3] | Drug metabolism [4] | Drug metabolism [5] | Drug metabolism (Liver microsome [6]) | Drug metabolism (Liver microsome [7]) | Drug metabolism (Hepatocyte [8]) | Drug metabolism [9] | Drug metabolism [10] | Drug metabolism [11] | Drug metabolism [12] | Drug metabolism [13] | Drug metabolism [14] | Drug metabolism [15]
1 | Cc1ccc2c(c1)-c1n[nH]c(=O)c3cccc(c13)O2 | 10.7 min | – | – | – | – | – | – | – | – | – | – | – | – | – | –
2 | O=C(O)CCN(CCO)Cc1ccc2c(c1)-c1n[nH]c(=O)c3cccc(c13)O2 | – | metabolite_detected | metabolite_detected | metabolite_detected | metabolite_detected | metabolite_detected | metabolite_detected | metabolite_detected | metabolite_detected | metabolite_detected | metabolite_detected | metabolite_detected | metabolite_detected | metabolite_detected | metabolite_detected
